Entries after “also recorded” stand apart in the source; their conditions may differ.
Assays:
[1] = Biodistribution of 205/6Bi-DEPA in normal athymic mice; type: in vivo
Experimental: Based on the promising data obtained from the AAIII based spectroscopic complexation kinetics and serum stability experiments, the stability of ^205/6Bi-DEPA was further evaluated by performing a biodistribution study in normal athymic mice as described previously. Blood levels and organ uptake of the radiolabeled complexes in mice were measured at five time points, 0.5, 1, 4, 8, and 24 h post-injection of ^205/6Bi-DEPA. […] Radioactivity that was detected in the blood and the organs was less than 2.44% ID/g at all points. At 24 h post injection, the % ID/g in the kidneys and spleen was 0.36±0.03% and 0.39±0.07%, respectively, which was slightly higher than that observed in other organs.

[2] = In vitro serum stability of 205/6Bi-DEPA in human serum (SE-HPLC); type: in vitro ADME; design: Radiolabled Complex, in vitro serum stability (Table 1): unit not given here; details: for Radiolabled Complex, in vitro serum stability (Table 1): 37° C.
Experimental: The new ligand DEPA was radiolabeled with ^177Lu and ^205/6Bi (a surrogate of ^212Bi and ^213Bi) and the corresponding radiolabeled complexes were evaluated for in vitro serum stability as described previously. For comparison, DOTA was also radiolabeled with ^177Lu. DEPA and DOTA (0.25 M NH4OAc buffer, pH 4.0) was radiolabeled with ^177Lu at 45° C. for 0.5 h to afford ^177Lu-DEPA (Rf=0.6) and ^177Lu-DOTA (Rf=0.4) in the respective radiochemical yield of 90% and 95% as determined by radio-TLC. DEPA (0.25 M NH4OAc buffer, pH 5.0) was successfully radiolabeled with ^205/6Bi at room temperature for 1 h to afford ^205/6Bi-DEPA in 96% yield (radio-TLC). ^177Lu-DOTA, 177Lu-DEPA, and ^205/6Bi-DEPA formed were purified from unbound ^205/6Bi by ion-exchange chromatography using a Chelex-100 column (1 mL volume bed, 100-200 mesh, Na^+ form, Bio-Rad, Richmond, Calif.) eluted with PBS (pH 7.4). In vitro serum stability of the purified radiolabeled complexes was performed to determine if DEPA or DOTA radiolabeled with ^177Lu or ^205/6Bi remained stable without loss of the radionuclide in human serum. This was assessed by measuring the transfer of radionuclide from the complex to serum proteins. […] However, ˜10% of the radioactivity was released from ^177Lu-DOTA over 4 days.
In vitro serum stability of the radiolabeled metal complexes. An aliquot of 3.7 MBq of the purified ^177Lu-labeled ligands was added to 0.5 mL of mouse serum (Sigma, St. Louis, Mo.) and 0.1% NaN3. The resulting mixture was incubated at 37° C. for 96 h. Aliquots of 2 μL of the resulting mixture were analyzed by radio-TLC and HPLC at different time points, 0, 0.25, 0.5, 1, 2, 4, 6, 24, 48, and 96 h of incubation. The stability of purified ^205/6Bi-DEPA was evaluated in human serum (Gemini Bioproducts, Woodland, Calif.) for 14 days by measuring the transfer of the radionuclide from the complex to serum proteins as monitored by SE-HPLC. Radiolabeled complexes were diluted to an appropriate volume that allowed for preparation of multiple samples containing 5-10 μCi and filter-sterilized using a Millex-GV 0.22 μm filter. 140 μL of this stock solution was then mixed with 1400 μL of sterile normal human serum or saline. Aliquots (200 μL) were drawn and separated into individual tubes for subsequent analysis using aseptic technique. The samples were incubated at 37° C., and at designated intervals, subjected to analysis by SE-HPLC. Samples were loaded onto the HPLC and eluted with PBS, pH 7.4 isocratically at 1 mL/min. […] Radioactivity associated with a transfer to serum proteins generally appeared between ˜4.5-8 min.

[3] = tested on: HT29 cells; assay: Antiproliferative activity, MTS assay, HT29 cells; type: cell-based, Human; details: 72 h incubation
Experimental: Cell culture Human cervix HeLa cell line was obtained from ATCC (Rockville, Md.) and cultured in minimum essential medium (MEM) with L-glutamine (2 mM), Earle's BSS and sodium bicarbonate (1.5 g/L), supplemented with 10% fetal bovine serum (FBS), non-essential amino acids (0.1 mM), sodium pyruvate (1 mM) and antibiotic/antimycotic solution in a humidified atmosphere with 5% CO2 at 37° C. […] Lung fibroblast MRC-5 cell line was obtained from ATCC (Rockville, Md.) and cultured in ATCC formulated EMEM, supplemented with 10% fetal bovine serum (FBS) in a humidified atmosphere with 5% CO2 at 37° C.
(§1) Antiproliferative Activity. Cells were seeded onto 96-well plate at density of 2,000 cells for Hela cells or 5,000 cells for HT29 cells or 5,000 cells for MRC-5 per well in 0.1 mL complete medium and allowed to attach for 24 h. Varying concentrations of the test compounds in the final volume of 0.1 mL complete medium were then added in at least five series dilutions and incubated for 72 h. To measure cell proliferation, the Cell Titer 96 aqueous nonreactive cell proliferation assay (Promega Life Sciences, Madison, Wis.) was used according to the manufacturer's instructions. Briefly, MTS (2 mg/mL) and PMS (0.92 mg/ml) were mixed in a ratio of 20:1. An aliquot (20 μL) of the MTS/PMS mixture was added into each well, and the plate was incubated for 3 h at 37° C. Optical absorbance at 490 nm was then recorded with an enzyme-linked immunosorbent assay (ELISA) microtiter plate reader (Biotek). Each experiment was done at least in triplicate. Antiproliferative activity of the test compounds was expressed as the fraction of optical densities of treated the cells relative to the untreated solvent controls.^31 The data were plotted in GraphPad Prizm 3.0. Nonlinear regression analysis was used to determine IC50 values.
Cell culture. Human cervix HeLa cell line was obtained from ATCC (Rockville, Md.) and cultured in minimum essential medium (MEM) with L-glutamine (2 mM), Earle's BSS and sodium bicarbonate (1.5 g/L), supplemented with 10% fetal bovine serum (FBS), non-essential amino acids (0.1 mM), sodium pyruvate (1 mM) and antibiotic/antimycotic solution in a humidified atmosphere with 5% CO2 at 37° C.
as §1, with “activity.” for “Activity.”, “cells” for “cells or 5,000 cells for MRC-5”, “controls.” for “controls.^31”

[4] = tested on: Hela cells; assay: Iron saturation experiment, Hela cell growth (MTS); type: cell-based, Human
Experimental: Cytotoxicity of the new chelators was measured in the HeLa and HT29 cancer cells and compared to that of the clinically used iron chelators DFO and DTPA. […] The preliminary cell culture experiments were performed to see ifNETA is an effective cytotoxic agent. […] In order to investigate the effect of the chelators on the cellular growth, the Hela cancer cells saturated with Fe(III)-citrate (50 μM) were incubated with each of the chelators (50 μM).
Iron Saturation Experiment Hela Cells were inoculated onto 96-well plates at density of 2,000 per well in 0.1 mL complete medium and incubated for 24 h. […] Control samples containing no ferric citriate were also tested. […] After the incubation, cells proliferation rates were evaluated by MTS assay.

[5] = In vitro serum stability of radiolabeled C-NE3TA complexes in human serum (SE-HPLC); type: in vitro ADME
Experimental: C-NE3TA was radiolabeled with ^90Y, ^177Lu, ^203Pb, ^205/6Bi, or ^153Gd as previously described (Chong, H. S.; Milenic, D. E.; Garmestani, K.; Brady, E. D.; Arora, H.; Pfiester, C.; Brechbiel, M. W., Nucl. Med. Biol. 2006, 33, 459-67; Chong H S, Garmestani K, Bryant Jr., L H Milenic D E, Overstreet T, Birch N, Le N, Brady E D, Brechbiel M W. J. Med. Chem. 2006, 49, 2055-2062). In vitro serum stability of the radiolabeled complexes purified via ion-exchange chromatography was performed to determine if C-NE3TA labeled with the radioisotopes remained stable without transchelation or loss of their respective radionuclide in human serum. This was assessed by measuring the transfer of radionuclide from the complex to serum proteins over the course of 11 days.
In vitro stability of the radiolabeled metal complexes. The stability of the purified radiolabeled complexes was evaluated in human serum (Gemini Bioproducts, Woodland, Calif.) for up to 11 days. The serum stability of the radiolabeled complexes was assessed by measuring the transfer of the radionuclide from each complex to serum proteins using SE-HPLC methods. Radiolabeled complexes were diluted to an appropriate volume that allowed for preparation of multiple samples containing 5-10 μCi and were filter-sterilized using a Millex-GV 0.22 μm filter. This stock solution was then mixed with 1400 μL of sterile normal human serum. Aliquots (200 μL) were drawn and separated into individual tubes for subsequent analysis using aseptic technique. The samples were incubated at 37° C., and at designated intervals, subjected to analysis by SE-HPLC. Samples were loaded onto the HPLC and eluted with PBS, pH 7.4 isocratically at 1 mL/min. […] Radioactivity associated with a transfer to serum proteins generally appeared at ˜6 min.

O=C([O-])CN1CCN(CCN(CC(=O)[O-])CC(=O)[O-])CCN(CC(=O)[O-])CCN(CC(=O)[O-])CC1.[Bi+3] [^205/6Bi-DEPA]
bone accumulation of the radioactivity ([1]; 0.5 h): 2.02±0.96 % ID/gm | bone accumulation of the radioactivity ([1]; 1 h): 0.38±0.09 % ID/gm | % ID/g in the kidneys ([1]; 24 h post injection): 0.36±0.03 % ID/g | % ID/g in the spleen ([1]; 24 h post injection): 0.39±0.07 % ID/g | Radioactivity detected in the blood and the organs ([1]; all time points, 0.5-24 h post-injection): less than 2.44 % ID/g | in vivo stability and clearance (in words) ([1]; normal athymic mice): essentially inert in vivo and rapidly cleared from the body | Radiolabled Complex, in vitro serum stability (Table 1) ([2]; 0 h): 100 | Radiolabled Complex, in vitro serum stability (Table 1) ([2]; 0.5 h): 100 | Radiolabled Complex, in vitro serum stability (Table 1) ([2]; 1 h): 100 | Radiolabled Complex, in vitro serum stability (Table 1) ([2]; 2 h): 100 | Radiolabled Complex, in vitro serum stability (Table 1) ([2]; 4 h): 100 | Radiolabled Complex, in vitro serum stability (Table 1) ([2]; 6 h): 100 | Radiolabled Complex, in vitro serum stability (Table 1) ([2]; 24 h): 100 | Radiolabled Complex, in vitro serum stability (Table 1) ([2]; 48 h): 100 | Radiolabled Complex, in vitro serum stability (Table 1) ([2]; 96 h): 100 | Radiolabled Complex, in vitro serum stability (Table 1) ([2]; 120 h): 100 | Radiolabled Complex, in vitro serum stability (Table 1) ([2]; 192 h): 100 | Radiolabled Complex, in vitro serum stability (Table 1) ([2]; 288 h): 100 | Radiolabled Complex, in vitro serum stability (Table 1) ([2]; 336 h): 100 | serum stability of 205/6Bi complex (in words) ([2]; 14 days): no radioactivity was released over 14 days; also recorded: very stable in human serum for 2 weeks

O=C(O)CN1CCN(CCN(CC(=O)O)CC(=O)O)CCN(CC(=O)O)CC1 [NETA]
IC50 [3]: 7.3 ± 1.5 µM | anti-proliferative activity compared to DFO ([4]; 50 μM, HeLa): three-fold increased anti-proliferative activity compared to DFO | effect on Hela cells saturated with Fe(III)-citrate (in words) ([4]; chelator 50 μM, Fe(III)-citrate 50 μM): almost no anti-proliferative activity | HeLa cancer cells died ([4]; free ligand 50 μM, no ferric citrate): ~80%

O=C(O)CNC(Cc1ccc([N+](=O)[O-])cc1)CN1CCN(CC(=O)O)CCN(CC(=O)O)CC1.[203Pb] (centres unmarked) [^203Pb-C-NE3TA]
stability in human serum (in words) ([5]; 37° C., up to 11 days): no measurable loss of radioactivity | radionuclide dissociated from the complex ([5]; in 1 day): ~40%

— patent US10189803B2, “Synthesis of therapeutic and diagnostic drugs centered on regioselective and stereoselective ring opening of aziridinium ions” (ILLINOIS INSTITUTE OF TECHNOLOGY, priority 2008, dated 2019)
